The subject of assay [1] is French beans (Phaseolus vulgaris) of the variety Fulvio. The experiment in a line: Bean assay: elongation of the petiole of the second leaf. Type of assay: in vivo. The conditions noted are these: five micro litres of test compound pipetted to the wound at the base of the second internode; measured fourteen days after application. The method, then: (§1) Two bioassays were developed in order to assay the activity of the compounds of the present invention. In the first assay, the activity of the compound was quantified in beans based on its effect on the elongation of the petiole of the second leaf. In the second assay, the compound's effect on the root growth of wheat was determined.
French beans (Phaseolus vulgaris) of the variety Fulvio were sown in 0.5 litres pots in a sandy loam without additional fertilizer. Plants grew under greenhouse conditions at 22/18°C (day/night) and 80% relative humility; light was supplemented […] 25 kLux. Plants were treated with test compounds eleven days after sowing, when the second internode was 2-5 mm long. Before application, the compounds were each dissolved in dimethyl sulfoxide and diluted in a mixture of lanolin-oil and acetone (1:2 ratio by volume). Five micro litres of the test compound was pipetted to the wound that was created after abscising the bract leaf from the base of the second internode. Fourteen days after application, the length of the petiole of the second leaf (measured from the base of the petiole to the base of the first leaflet) was determined in order to quantify the activity of the compounds.

For assay [2], the system named is Wheat (Triticum aestivum) seeds of the variety Arina. The experiment in a line: Wheat assay: plant (root and shoot) area and curliness of the roots. The format is in vivo. Conditions: seeds sown in pouches with compound solution; twelve days after sowing/application. The method, then: as §1
The test compounds were dissolved in small volumes of dimethyl sulfoxide and diluted to the appropriate concentration with water. Wheat (Triticum aestivum) seeds of the variety Arina were sown in pouches (14.7 × 13.2 cm) containing 10 mL of the appropriate compound solution. The pouches were stored at 17 °C for three days to enable the seeds to germinate. Plants were then stored at 5°C. Twelve days after sowing/application, plants were removed from the pouches and scanned. The effect of the compounds was quantified by determining plant (root and shoot) area and curliness of the roots (curliness is an indicator of brassinosteroid-type activity).

The target of assay [3] is T1, Arabidopsis BIN2 kinase (Uniprot Q39011) (Arabidopsis thaliana, UniProt Q39011).
T1 construct: made in house; host or cells: E. coli BL21
T1 sequence (Q39011 1-380): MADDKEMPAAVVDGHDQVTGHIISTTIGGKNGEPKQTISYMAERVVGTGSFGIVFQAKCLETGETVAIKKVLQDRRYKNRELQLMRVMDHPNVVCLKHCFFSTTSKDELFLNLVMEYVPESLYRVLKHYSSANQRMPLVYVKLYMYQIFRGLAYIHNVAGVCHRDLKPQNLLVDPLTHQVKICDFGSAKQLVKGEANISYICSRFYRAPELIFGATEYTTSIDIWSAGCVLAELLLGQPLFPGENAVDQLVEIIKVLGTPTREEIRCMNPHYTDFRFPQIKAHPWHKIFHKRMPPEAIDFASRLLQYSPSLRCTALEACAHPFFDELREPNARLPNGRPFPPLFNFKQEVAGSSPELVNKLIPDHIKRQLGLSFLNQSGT
The experiment in a line: In vitro assay for inhibition of plant GSK3/Shaggy-like kinase activity (ADP-Glo). Type of assay: biochemical. Conditions: compounds at 5 µM; 5 µM ATP; myelin basic protein substrate; 1 h at 20°C; triplicate; read-out: inhibited the activity of His6-BIN2 relative to the solvent vehicle control. On the procedure: Arabidopsis BIN2 kinase (Uniprot Q39011) was produced in E.coli BL21 as an N-terminal hexahistidine fusion protein. In vitro kinase assays were performed by incubating 50 ng His6-BIN2 protein with 5 µg myelin basic protein (Sigma-Aldrich) as substrate and 5 µM ATP as co-substrate in reaction buffer consisting of 40 mM Tris-HCl, 20 mM MgCl2 and 0.1mg/mL bovine serum albumin in a final reaction volume of 50 µl. Enzyme activity was assessed in the absence and presence of compounds (described in Tables A and B) at 5 µM by measuring the level of ADP produced after incubation for 1 h at 20°C using an enzyme-coupled bioluminescent assay (ADP-Glo, Promega Corp.). The experiment was performed in triplicate.
(In general: ADP-Glo first removes unused ATP, then detects ADP through luciferase.)

Turning to `O=C1CCC(=O)N1c1cc(C(F)(F)F)ccn1` [Compound B1, 1-[4-(trifluoromethyl)-2-pyridyl]pyrrolidine-2,5-dione], the “increase of the length of the petiole of the second leaf” value in assay [1] was at least 10%. For the same compound, in assay [2], the “curliness of the roots (indicator of brassinosteroid-type activity)” value is “curly root phenotype”; the “reduction of the plant (root and shoot) area” value was at least 5%. Also, in assay [3], the inhibition at 5 µM was at least 20%.

As to `N#Cc1ccnc(NC(=O)CCC(=O)O)c1` [Compound A7, 4-[(4-cyano-2-pyridyl)amino]-4-oxo-butanoic acid], the inhibition at 5 µM in assay [3] is at least 20%.

On to `COC(=O)CCC(=O)Nc1cc(I)ccn1` [Compound A6], for which the inhibition at 5 µM in assay [3] was at least 20%.

For the compound `COC(=O)CCC(=O)Nc1cc(C#N)ccn1` [Compound A3, methyl 4-[(4-cyano-2-pyridyl)amino]-4-oxo-butanoate], the inhibition at 5 µM in assay [3] was at least 20%.

Take `O=C(O)CCC(=O)Nc1cc(C(F)(F)F)ccn1` [Compound A8]: the inhibition at 5 µM in assay [3] was at least 20%.

Consider `COC(=O)CCC(=O)Nc1cc(Br)ccn1` [Compound A9], for which the inhibition at 5 µM in assay [3] was at least 20%.

On to `COC(=O)CCC(=O)Nc1cc(Cl)ccn1` [Compound A1, methyl 4-[(4-chloro-2-pyridyl)amino]-4-oxo-butanoate], for which the “increase of the length of the petiole of the second leaf” value in assay [1] is on record as at least 10%. Besides, the inhibition at 5 µM in assay [3] is at least 20%.

Consider `COC(=O)CCC(=O)Nc1cc(C(F)(F)F)ccn1` [Compound A2], for which the inhibition at 5 µM in assay [3] was at least 20%.

Turning to `COC(=O)CCC(=O)Nc1cc([N+](=O)[O-])ccn1` [Compound A5], the inhibition at 5 µM in assay [3] is at least 20%.

(Values after patent EP2762468A1, “2-aminopyridine derivatives as plant growth regulating compounds” (Syngenta Participations AG, priority 2013, dated 2014).)
